# Source: patent US12275684B2, “Methods for making and using endoxifen” (Atossa Therapeutics, Inc., priority 2017, dated 2025)
# Like-named read-outs stand apart in the source and are kept apart here.
# Test: Placebo controlled, dose escalation pharmacokinetic study of oral (Z)-Endoxifen capsules (serum endoxifen; incl. accumulation ratios and dose linearity)
# Assay type: in vivo, human
# Details: female, human, serum
# Description: An objective of the study was to assess the safety and tolerability of oral (Z)-Endoxifen when administered […] orally as a capsule to healthy female volunteers. A secondary objective was to assess the pharmacokinetics of multiple doses of oral (Z)-Endoxifen in the subjects.
# Generally, healthy female volunteers aged ≥18 years and ≤65 years were enrolled. 24 participants were enrolled in 3 cohorts and will be administered study drug orally. Three dose levels of orally administered (Z)-Endoxifen were investigated in 3 cohorts. In each cohort participants were randomized to receive an oral (Z)-Endoxifen or placebo in a blinded fashion. Enteric-resistant capsules used in the study were designed as delayed release capsules to resist rupture for at least 30 minutes, but typically, for about 2 hours, under gastric conditions and then open fully in intestinal fluid (DRCaps; Capsugel, a Lonza Company, USA). Enteric-resistant (Swedish Orange size Zero (0); Capsugel, USA) DRCaps capsules manually filled with 1, 2 or 4 mg of (Z)-endoxifen neat in compliance with GMP requirements were used. Placebo capsules contained microcrystalline cellulose an inert common capsule and tablet excipient.
# Each cohort enrolled 8 participants, with 6 participants receiving (Z)-Endoxifen 1 mg capsules orally at 1 mg (Cohort 1), 2 mg (Cohort 2) or 4 mg (Cohort 3) doses and 2 participants receiving matching placebo capsules. In Cohort 1 (Dose Level=1 mg) two participants (sentinels) were dosed 24 hours prior to the remaining participants. One sentinel was dosed with (Z)-Endoxifen and the other with placebo. The remaining six participants in Cohort 1 were dosed as no safety concerns were identified in the sentinel participants. The non-sentinel participants in Cohort 1 were admitted to the clinical research facility at least one day later than the sentinels. There were no sentinels in Cohorts 2 and 3.
# Participant engagement in this study was for a period of 56 days. These included a 28 day screening period, and a 7 day post treatment period for Pharmacokinetic (PK) sampling. There were two confinement periods, one at the beginning and one at the end of the dosing periods. Participants were confined to the clinical facility on Days-1 through to Day 2 and Days 21 and 22. If participants were to experience any clinically significant adverse events during the study, they would have been required to remain in the clinical facility for further observation at the discretion of the Principal Investigator (PI).
# Healthy female volunteers were screened within 28 days prior to commencement of dosing. Participants were admitted to the clinical facility on Day-1 for up to 3 days. The first dose of (Z)-Endoxifen or placebo capsules was administered on Day 1. Following completion of all safety assessments and sampling for PK analyses, participants were discharged from the clinical facility on Day 2. The first dose on Day 1 was followed by a 6-day treatment free period (Days 2-7). Each participant returned to the clinical facility for PK blood draws and safety assessments during the treatment free period on study Days 4 and 6. On Day 8 participants commenced daily administration of (Z)-Endoxifen capsules or placebo capsules for 14 consecutive days (Days 8-21). Participants were supplied with study drug capsules and asked to self administer daily. Participants visited the clinical facility on Days 11, 14 and 17, prior to dose administration, for PK blood draws and safety assessments. On the morning of Day 21 each participant returned to the clinical facility prior to dose administration and were confined to the facility until Day 22 to allow for the collection of PK blood draws and safety assessments. The Day 21 dose was the last administration of study drug. Participants were discharged from the clinical facility on Day 22 and returned for PK blood draws and safety assessments on study Days 24, 26, and 28. […]
smiles,measurement,setting,value
"CC/C(=C(\c1ccc(O)cc1)c1ccc(OCCNC)cc1)c1ccccc1 [(Z)-Endoxifen, (Z)-4-(1-(4-(2-(methylamino)ethoxy)phenyl)-2-phenylbut-1-enyl) phenol]",AUC(0-inf),"oral, 2 mg, Day 1, 2 mg, N 6, read-out: AUC0-inf, Mean",1110 ng·h/mL
same,AUC(0-inf),"oral, 2 mg, Day 1, 2 mg, N 6, read-out: AUC0-inf, Median",1100 ng·h/mL
same,AUC(0-t),"oral, 2 mg, Day 1, 2 mg, N 6, read-out: AUC24hr, GeoMean",301 ng·h/mL
same,AUC(0-t),"oral, 2 mg, Day 1, 2 mg, N 6, read-out: AUC24hr, Mean",305 ng·h/mL
same,AUC(0-t),"oral, 2 mg, Day 1, 2 mg, N 6, read-out: AUC24hr, Median",303 ng·h/mL
same,AUC(0-t),"oral, 2 mg, Day 1, 2 mg, N 6, read-out: AUCTlast, GeoMean",862 ng·h/mL
same,AUC(0-t),"oral, 2 mg, Day 1, 2 mg, N 6, read-out: AUCTlast, Mean",889 ng·h/mL
same,AUC(0-t),"oral, 2 mg, Day 1, 2 mg, N 6, read-out: AUCTlast, Median",955 ng·h/mL
same,Cmax,"oral, 2 mg, Day 1, 2 mg, N 6, read-out: Cmax, GeoMean",17.3 ng/mL
same,Cmax,"oral, 2 mg, Day 1, 2 mg, N 6, read-out: Cmax, Mean",17.7 ng/mL
same,Cmax,"oral, 2 mg, Day 1, 2 mg, N 6, read-out: Cmax, Median",17.5 ng/mL
same,Tmax,"oral, 2 mg, Day 1, 2 mg, N 6, read-out: Tmax, GeoMean",4.19 h
same,Tmax,"oral, 2 mg, Day 1, 2 mg, N 6, read-out: Tmax, Mean",4.28 h
same,Tmax,"oral, 2 mg, Day 1, 2 mg, N 6, read-out: Tmax, Median",4.17 h
same,Vd/F,"oral, 2 mg, Day 1, 2 mg, N 6, read-out: Vz/F, GeoMean",127 L
same,Vd/F,"oral, 2 mg, Day 1, 2 mg, N 6, read-out: Vz/F, Mean",131 L
same,Vd/F,"oral, 2 mg, Day 1, 2 mg, N 6, read-out: Vz/F, Median",118 L
same,half-life,"oral, 1-4 mg, read-out: apparent terminal half life (t½) by dose level",2520 to 3180 min
same,Tmax,"oral, Days 1 and 21, 1-4 mg, read-out: Median Tmax by dose level",4 to 8 h
same,AUC(0-inf),"oral, dosing range of 1 mg to 4 mg, read-out: AUC0-inf",400 to 6000 ng·h/mL
same,AUC(0-inf),"po, 1 mg, Dose: 1 mg oral, Day 1, read-out: AUC(0-inf), individual subjects",593 ng·h/mL
same,AUC(0-t),"po, 1 mg/day, Day 1, 1 mg/day oral (n = 5), read-out: AUC24 hr, Arithmetic Mean",158 ng·h/mL
same,Cmax,"po, 1 mg/day, Day 1, 1 mg/day oral (n = 5), read-out: Cmax, Arithmetic Mean",9.6 ng/mL
same,Tmax,"po, 1 mg/day, Day 1, 1 mg/day oral (n = 5), read-out: Median Tmax",6 h
same,Tmax,"po, 1 mg/day, Day 1, 1 mg/day oral (n = 5), read-out: Tmax (Range)",2 to 8.08 h
same,half-life,"po, 1 mg/day, Day 1, 1 mg/day oral (n = 5), read-out: t1/2, Arithmetic Mean (converted)",2470 min
same,AUC(0-t),"po, 1 mg/day, Day 21, 1 mg/day oral (n = 5), read-out: AUC24 hr, Arithmetic Mean",458 ng·h/mL
same,Cmax,"po, 1 mg/day, Day 21, 1 mg/day oral (n = 5), read-out: Cmax, Arithmetic Mean",24.6 ng/mL
same,Tmax,"po, 1 mg/day, Day 21, 1 mg/day oral (n = 5), read-out: Median Tmax",8 h
same,Tmax,"po, 1 mg/day, Day 21, 1 mg/day oral (n = 5), read-out: Tmax (Range)",4 to 6.05 h
same,half-life,"po, 1 mg/day, Day 21, 1 mg/day oral (n = 5), read-out: t1/2, Arithmetic Mean (converted)",3160 min
same,AUC(0-t),"po, 2 mg, Day 21, dose 2 mg oral once daily, GeoMean, N 6, read-out: AUC24hr",897 ng·h/mL
same,Cmax,"po, 2 mg, Day 21, dose 2 mg oral once daily, GeoMean, N 6, read-out: Cmax",48.8 ng/mL
same,Tmax,"po, 2 mg, Day 21, dose 2 mg oral once daily, GeoMean, N 6, read-out: Tmax",3.64 h
same,half-life,"po, 2 mg, Day 21, dose 2 mg oral once daily, GeoMean, N 6, read-out: apparent terminal half life (t½) (converted)",2570 min
same,Vd/F,"po, 2 mg, Day 21, dose 2 mg oral once daily, GeoMean, N 6, read-out: volume of distribution (Vd/F)",138 L
same,AUC(0-t),"po, 2 mg, Day 21, dose 2 mg oral once daily, Mean, N 6, read-out: AUC24hr",911 ng·h/mL
same,Cmax,"po, 2 mg, Day 21, dose 2 mg oral once daily, Mean, N 6, read-out: Cmax",50 ng/mL
same,Tmax,"po, 2 mg, Day 21, dose 2 mg oral once daily, Mean, N 6, read-out: Tmax",4.01 h
same,half-life,"po, 2 mg, Day 21, dose 2 mg oral once daily, Mean, N 6, read-out: apparent terminal half life (t½) (converted)",2600 min
same,Vd/F,"po, 2 mg, Day 21, dose 2 mg oral once daily, Mean, N 6, read-out: volume of distribution (Vd/F)",139 L
same,AUC(0-t),"po, 2 mg, Day 21, dose 2 mg oral once daily, Median, N 6, read-out: AUC24hr",910 ng·h/mL
same,Cmax,"po, 2 mg, Day 21, dose 2 mg oral once daily, Median, N 6, read-out: Cmax",51 ng/mL
same,Tmax,"po, 2 mg, Day 21, dose 2 mg oral once daily, Median, N 6, read-out: Tmax",4 h
same,half-life,"po, 2 mg, Day 21, dose 2 mg oral once daily, Median, N 6, read-out: apparent terminal half life (t½) (converted)",2740 min
same,Vd/F,"po, 2 mg, Day 21, dose 2 mg oral once daily, Median, N 6, read-out: volume of distribution (Vd/F)",132 L
same,AUC(0-inf),"po, 2 mg, Dose: 2 mg oral, Day 1, read-out: AUC(0-inf), individual subjects",1010 ng·h/mL
same,AUC(0-t),"po, 2 mg/day, Day 1, 2 mg/day oral (n = 6), read-out: AUC24 hr, Arithmetic Mean",305 ng·h/mL
same,Cmax,"po, 2 mg/day, Day 1, 2 mg/day oral (n = 6), read-out: Cmax, Arithmetic Mean",17.7 ng/mL
same,Tmax,"po, 2 mg/day, Day 1, 2 mg/day oral (n = 6), read-out: Median Tmax",4.17 h
same,Tmax,"po, 2 mg/day, Day 1, 2 mg/day oral (n = 6), read-out: Tmax (Range)",3 to 6 h
same,half-life,"po, 2 mg/day, Day 1, 2 mg/day oral (n = 6), read-out: t1/2, Arithmetic Mean (converted)",2940 min
